Assay results published in PMC3479139, “Diverse Small Molecule Inhibitors of Human Apurinic/Apyrimidinic Endonuclease APE1 Identified from a Screen of a Large Public Collection” (PLoS ONE, 2012).

Experiments:
E. coli Endo IV = target: T1, E. coli Endo IV (Escherichia coli, UniProt P0A6C1); assay: E. coli Endo IV profiling counterscreen; type: biochemical; conditions: read-out: EndoIV IC50;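 also: selectivity counterscreen of candidate APE1 inhibitors against the bacterial endonuclease Endo IV, run in the same assay format as the primary APE1 high-throughput screen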
T1 construct: made in house
Excerpt: In order to screen out nonselective compounds, such as non-specific DNA binders and inhibitors of related enzymes, we used a miniaturized ThO DNA displacement assay and a counterscreen against the bacterial endonuclease E. coli Endo IV, respectively, following the previously published protocols [21].
To probe the selectivity of the candidate APE1 inhibitors, we tested them against E. coli EndoIV [36], employing the same assay as used in the HTS.

APE1 [1] = target: T2, APE1 (Homo sapiens, UniProt P27695); assay: Fluorescence polarization (FP) displacement assay of APE1 binding to AP-DNA probe; conditions: read-out: FP IC50;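 also: TAMRA 5′-labeled duplex DNA with THF abasic site (5 nM) and APE1 (20 nM), Mg2+-free buffer, 15 min at room temperature, inhibition seen as lowered polarization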
T2 construct: made in house

APE1 [2] = target: T2, APE1; assay: Gel-based APE1 incision assay with fluorescence (TAMRA) detection; type: biochemical
[3] = target: double-stranded 17-mer DNA fragment; assay: ThO (Thiazole Orange) DNA displacement assay; type: binding; conditions: read-out: ThO-DNA binding IC50;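 also: miniaturized displacement of the intercalating dye from unlabeled duplex DNA, used to flag nonspecific DNA binders, chiefly intercalators, groove binders may be missed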
APE1 [4] = target: T2, APE1; assay: Fluorogenic kinetic qHTS APE1 incision assay (primary screen and retest of cherrypicked samples); type: biochemical;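 also: purified APE1 cleaving a fluorophore/dark-quencher labelled 17-mer duplex DNA bearing a tetrahydrofuran AP site, fluorescence rise followed kinetically over the first 2 min, inhibition normalized to controls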
Description: All screening operations were performed on a fully integrated robotic system (Kalypsys, San Diego, CA) [28] with library plates screened proceeding from the lowest to the highest concentration to minimize compound carryover [26]. Vehicle-only plates, with DMSO being pin-transferred to the entire column 5–48 compound area, were included regularly throughout the screen in order to record any systematic shifts in assay signal. During the screen, reagent bottles were kept at 4°C and all liquid lines were covered with aluminum foil to minimize degradation.
Screening data were corrected and normalized, and concentration–effect relationships was derived using in-house developed algorithms [25].
To screen for inhibitors of APE1 incision activity, we employed a purified-enzyme biochemical assay with a model substrate featuring a red-shifted fluorescent reporter in combination with a dark non-emitting quencher. These moieties were incorporated as end labels onto a 17-mer double-stranded DNA fragment containing a centrally-located tetrahydrofuran AP site sugar mimetic, which serves as the APE1 cleavage site. Upon APE1-catalyzed strand scission immediately 5′ to the AP site analog, the shortened oligodeoxynucleotide carrying the fluorescent reporter spontaneously dissociates from the rest of the substrate, leading to an increase in fluorescence due to its spatial separation from the dark quencher (Figure 1A).
Using a high-speed whole-plate fluorescence imager, the assay data for the entire screen was conducted in kinetic mode, with the APE1 incision reaction being monitored over the initial linear time frame of 2 min (Figure 1B). Thus, any inhibition associated with each sample was computed from the alteration in fluorescence intensity over the time-course measurement period, after normalization against the appropriate controls (Figure 1B, inset).

[5] = estimated IC50, fluorophore detection, entries 113-223, read-out: F-PAGE Assay IC50
[6] = initial quantitative high-throughput screen, read-out: APE1 qHTS IC50
[7] = retest of cherrypicked sample, read-out: APE1 Retest IC50
[8] = entries 113-223: fluorophore detection, estimated IC50, read-out: Gel-based electrophoretic separation assay with fluorophore detection, estimated IC50 (column headed Radiotracer Assay (%Activity))

T2 sequence (P27695 whole entry): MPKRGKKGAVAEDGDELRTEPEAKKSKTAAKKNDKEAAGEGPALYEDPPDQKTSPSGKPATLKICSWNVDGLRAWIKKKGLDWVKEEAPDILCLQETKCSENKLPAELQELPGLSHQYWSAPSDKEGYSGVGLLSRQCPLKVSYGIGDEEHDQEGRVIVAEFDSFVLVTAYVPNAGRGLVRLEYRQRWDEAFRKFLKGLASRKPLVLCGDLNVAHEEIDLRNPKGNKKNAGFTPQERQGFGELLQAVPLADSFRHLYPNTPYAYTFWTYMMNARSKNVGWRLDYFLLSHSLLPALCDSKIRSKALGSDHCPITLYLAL

Row | SMILES | IC50 (E. coli Endo IV) [µM] | IC50 (APE1 [1]) [µM] | IC50 (APE1 [2]; [5]) [µM] | IC50 [3] [µM] | IC50 (APE1 [4]; [6]) [µM] | IC50 (APE1 [4]; [7]) [µM] | IC50 (APE1 [2]; [8]) [µM]
1 | CN(CC(=O)Nc1cccc(F)c1)C(=O)c1cccc(-n2cccc2)c1 [MLS001071694] | > 57 | 22.9 | 5 | > 57 | 3.4 | 5.1 | 
2 | CC(=O)Nc1ccc(S(=O)(=O)NCCC(=O)OCC(=O)N2CCN(C(=O)c3ccco3)CC2)cc1 [MLS001078987] | > 57 | 20.4 |  | > 57 | 16.8 |  | 22.4
3 | CN(CC(=O)Nc1c(Cl)cccc1Cl)C(=O)c1cccc(-n2cccc2)c1 [MLS001079471] | > 57 | 10.2 | 2.5 | > 57 | 4.2 | 11.5 | 
4 | COCCN(C(=O)COC(=O)c1cc2c(s1)CCC2)c1c(N)n(Cc2ccccc2)c(=O)[nH]c1=O [MLS001080179] | > 57 | > 57 | 0.3 | > 57 | 0.8 | 1.1 | 
5 | COc1ccc(NC(=O)CN(C)C(=O)c2cc3c(s2)CCC3)cc1 [MLS001081306] | > 57 | > 57 | 0.1 | 40.8 | 1.9 | 7.3 | 
6 | COc1ccc(NC(=O)CN(C)C(=O)c2cccc(-n3cccc3)c2)cc1 [MLS001097639] | > 57 | > 57 | 3.5 | > 57 | 2.4 | 18.2 | 
7 | CCCN(C(=O)c1cccc(-n2cccc2)c1)c1c(N)n(Cc2ccccc2)c(=O)[nH]c1=O [MLS001098232] | > 57 | 20.4 | 2.8 | > 57 | 6.7 | 6.5 | 
8 | Cc1ccc(NC(=O)CN(C)C(=O)c2cc(-c3ccco3)nc3ccccc23)cc1 [MLS001099510] | > 57 | > 57 | 3.5 | > 57 | 5.3 | 22.9 | 
9 | CCN(CC(=O)Nc1c(F)cccc1F)C(=O)/C=C/c1ccc2ccccc2n1 [MLS001128172] | > 57 | > 57 | 4 | > 57 | 1.7 | 20.4 | 
10 | COc1cc(-c2nnc(COC(=O)c3ccc(C)o3)o2)cc(OC)c1OC [MLS001139127] | > 57 | > 57 |  | > 57 | 23.8 | 32.4 | 14.1
11 | Nc1c(/C=C2/C=CC(=O)C(O)=C2)c(=O)nc2sc(CC(=O)N3CCCCC3)nn12 [MLS001139223] | > 57 | > 57 | 2.5 | > 57 | 1.9 | 2 | 
12 | Nc1c(/C=C2/C=CC(=O)C(O)=C2)c(=O)nc2sc(CC(=O)N3CCCC3)nn12 [MLS001139292] | > 57 | > 57 | 1 | > 57 | 10.6 | 6.5 | 
13 | O=C(c1cccc(-n2cccc2)c1)N1CCN(S(=O)(=O)c2ccccc2)CC1 [MLS001139594] | > 57 | > 57 | 2.5 | > 57 | 1.5 | 11.5 | 
14 | Cc1coc2c(C)c3oc(=O)c(CCC(=O)N[C@@H](C)C(=O)N[C@@H](Cc4ccccc4)C(=O)O)c(C)c3cc12 [MLS001140219] | > 57 | > 57 |  | > 57 | 13.4 | 18.2 | 20
15 | Cc1cccc(NC(=O)CNC(=O)c2cccc(-n3cccc3)c2)c1C [MLS001141795] | > 57 | > 57 | 1.1 | > 57 | 1.9 | 6.5 | 
16 | COc1cccc(NC(=O)CN(C)C(=O)c2cc3c(s2)CCC3)c1 [MLS001142077] | > 57 | > 57 |  | 20.4 | 10.6 | 32.4 | 10
17 | O=C(CSc1nc2sc3c(c2c(=O)n1-c1ccccc1)CCCC3)NN=Cc1ccccc1C(=O)O [MLS001147809] | > 57 | > 57 |  | > 57 | 10.6 | 14.5 | 12.6
18 | Cc1cccc(NC(=O)CNC(=O)CCc2nc3sc4c(c3c(=O)[nH]2)CCCC4)c1C [MLS001156641] | > 57 | > 57 | 4 | 45.7 | 10.6 | 36.3 | 
19 | COc1cccc(NC(=O)CN(C)C(=O)c2cc(-c3ccco3)nc3ccccc23)c1 [MLS001156783] | > 57 | > 57 | 7.9 | > 57 | 10.6 | 10.2 | 
